≈ marks a conversion by molar mass, not a printed value.
Settings: not given

| logP | Structure (SMILES) |
| --- | --- |
| 2.73 | CCCCCCl |

Same assay, conditions: 25 °C

| solubility [mM] | Structure (SMILES) |
| --- | --- |
| 135 (≈ 15700 µg/mL) | CCC(C)C(C)(C)O (stereo unspecified) |
| 1050 (≈ 90000 µg/mL) | C=CC(O)CC (stereo unspecified) |
| 9.4 (≈ 2030 µg/mL) | CCOC(=O)CCCCCC(=O)OCC |
| 0.407 (≈ 70.1 µg/mL) | CCCCCCCC(=O)OCC |
| 2.95 (≈ 679 µg/mL) | CCOC(=O)CCCCCCC(=O)OCC |
| 4.36 (≈ 629 µg/mL) | CCCCCC(=O)OCC |
| 3.08 (≈ 445 µg/mL) | CCC(C)C(O)C(C)CC (stereo unspecified) |
| 0.288 (≈ 68.6 µg/mL) | Clc1cccc(I)c1 |
| 0.383 (≈ 73.4 µg/mL) | Clc1ccccc1Br |
| 173 (≈ 15200 µg/mL) | CCCOCC |
| 2.18 (≈ 315 µg/mL) | CCCCCC[C@@H](O)CC |
| 53.6 (≈ 6980 µg/mL) | CCC(C)(O)C(C)(C)C (stereo unspecified) |
| 10.9 (≈ 1250 µg/mL) | CCCCCCC=O |
| 17 (≈ 2210 µg/mL) | CCCCC(=O)OCC |
| 25.1 (≈ 2910 µg/mL) | CC(C)CC(C)CO (stereo unspecified) |
| 0.0793 (≈ 15.9 µg/mL) | CCCCCCCCCC(=O)OCC |
| 407 (≈ 41500 µg/mL) | CC(C)C(C)(C)O |
| 0.0286 (≈ 9.43 µg/mL) | Ic1cccc(I)c1 |

| solubility [mM] | Structure (SMILES) |
| --- | --- |
| 113 (≈ 13200 µg/mL) | CC(C)CC(C)(C)O |
| 0.291 (≈ 69.4 µg/mL) | Clc1ccccc1I |
| 51.2 (≈ 5950 µg/mL) | CCC(=O)OC(C)C |
| 155 (≈ 15500 µg/mL) | CCC(=O)C(C)C |
| 0.068 (≈ 8.45 µg/mL) | C#CCCCCCCC |
| 1.83 (≈ 290 µg/mL) | CCCCCCC(=O)OCC |
| 29.3 (≈ 3400 µg/mL) | CC(C)CCOC=O |
| 1.75 (≈ 337 µg/mL) | CCCCOC(=O)c1ccc(N)cc1 |
| 278 (≈ 24500 µg/mL) | CCOC(C)C |
| 1.15 (≈ 197 µg/mL) | CCCCCCCCCC(C)O (stereo unspecified) |
| 3.96 (≈ 504 µg/mL) | CCCC(Cl)Cl |
| 99.9 (≈ 10200 µg/mL) | CC(C)COC=O |
| 102 (≈ 9010 µg/mL) | CCCCOC |
| 0.158 (≈ 29.5 µg/mL) | CCCCCCCCC(=O)OCC |
| 10.3 (≈ 580 µg/mL) | C/C=C\C |
| 91.1 (≈ 15100 µg/mL) | COc1ccc(NC(C)=O)cc1 |
| 1.02 (≈ 250 µg/mL) | CCOC(=O)CCCCCCCC(=O)OCC |
| 45.6 (≈ 5300 µg/mL) | CCCOC(=O)CC |

| Structure (SMILES) | solubility [mM] |
| --- | --- |
| C=COC=C | 77.6 (≈ 5440 µg/mL) |
| FC(F)(F)CCl | 77.7 (≈ 9200 µg/mL) |
| Brc1ccc(Br)c(Br)c1 | 0.0222 (≈ 7 µg/mL) |

Same assay, conditions: 27 °C

| solubility [mM] | Structure (SMILES) |
| --- | --- |
| 0.0591 (≈ 19.5 µg/mL) | Ic1ccccc1I |
